Here are results for 13 compounds from US9771351B2, “Wnt signaling inhibitor” (KYOWA HAKKO KIRIN CO., LTD., priority 2013, dated 2017).

Test [1] concerns T-cell factor (TCF)-luciferase reporter using Wnt pathway as index. Put plainly: Inhibitory activity against TCF-luciferase reporter using Wnt pathway as index (DLD-1/TCF-Luc cells). In kind it is cell-based, human. To be noted: Homo sapiens, read-out: Inhibition ratio (%) at 1 μmol/L. How it is done: Test Example 1: Inhibitory Activity Against T-Cell Factor (TCF)-Luciferase Reporter Using Wnt Pathway as Index
The inhibitory activity of test compounds against Wnt pathway was evaluated by the following method.
A human colorectal adenocarcinoma cell line DLD-1 (Japanese Collection of Research Bioresources) was cultured in RPMI-1640 medium (Gibco/Life Technologies, Inc.) containing 10% fetal bovine serum (Gibco/Life Technologies, Inc.), 10 mmol/L of a 4-(2-hydroxyethyl)-1-piperazineethanesulfonic acid (HEPES) buffer solution (Gibco/Life Technologies, Inc.), 1 mmol/L of a sodium pyruvate solution (Gibco/Life Technologies, Inc.), 4.5 g/L of a D-(+)-glucose solution (Sigma-Aldrich, Inc.), 100 units/mL penicillin (Gibco/Life Technologies, Inc.) and 100 μg/mL of streptomycin (Gibco/Life Technologies, Inc.) under the conditions of 37° C. and 5% carbon dioxide gas. The DLD-1 cells were seeded in a 10 cm dish, and 20 μg of a luciferase gene plasmid pGL4.27 having a TCF responsive sequence inserted therein was transfected into the cells using 10 μL of Attractene (Qiagen, Inc.) according to the protocol attached to the product. A stably expressing cell line (DLD-1/TCF-Luc) was selected using […] of hygromycin B (Wako Pure Chemical Industries Ltd.). The DLD-1/TCF-Luc cells were detached with trypsin and seeded in a 384-well plate, and a test compound was added at different concentrations. After 18 hours, the luciferase activity was measured using Steady-Glo™ Luciferase Assay System (Promega, Inc.).
The inhibition ratio was obtained according to the following formula 1. The inhibition ratio (%) of the compound of the present invention at 1 μmol/L against the TCF-luciferase reporter using the Wnt pathway as an index is shown in Table 6. [Math. 1] Inhibition ratio (%)=100−{(luciferase activity when test compound was added)−(luciferase activity of blank)}/{(luciferase activity of control)−(luciferase activity of blank)}×100 Formula 1

A further test deals with T1, tankyrase-2 (Homo sapiens, UniProt Q9H2K2).
T1 construct: purchased BPS Bioscience, Inc. 80566
T1 sequence (Q9H2K2 1-1166): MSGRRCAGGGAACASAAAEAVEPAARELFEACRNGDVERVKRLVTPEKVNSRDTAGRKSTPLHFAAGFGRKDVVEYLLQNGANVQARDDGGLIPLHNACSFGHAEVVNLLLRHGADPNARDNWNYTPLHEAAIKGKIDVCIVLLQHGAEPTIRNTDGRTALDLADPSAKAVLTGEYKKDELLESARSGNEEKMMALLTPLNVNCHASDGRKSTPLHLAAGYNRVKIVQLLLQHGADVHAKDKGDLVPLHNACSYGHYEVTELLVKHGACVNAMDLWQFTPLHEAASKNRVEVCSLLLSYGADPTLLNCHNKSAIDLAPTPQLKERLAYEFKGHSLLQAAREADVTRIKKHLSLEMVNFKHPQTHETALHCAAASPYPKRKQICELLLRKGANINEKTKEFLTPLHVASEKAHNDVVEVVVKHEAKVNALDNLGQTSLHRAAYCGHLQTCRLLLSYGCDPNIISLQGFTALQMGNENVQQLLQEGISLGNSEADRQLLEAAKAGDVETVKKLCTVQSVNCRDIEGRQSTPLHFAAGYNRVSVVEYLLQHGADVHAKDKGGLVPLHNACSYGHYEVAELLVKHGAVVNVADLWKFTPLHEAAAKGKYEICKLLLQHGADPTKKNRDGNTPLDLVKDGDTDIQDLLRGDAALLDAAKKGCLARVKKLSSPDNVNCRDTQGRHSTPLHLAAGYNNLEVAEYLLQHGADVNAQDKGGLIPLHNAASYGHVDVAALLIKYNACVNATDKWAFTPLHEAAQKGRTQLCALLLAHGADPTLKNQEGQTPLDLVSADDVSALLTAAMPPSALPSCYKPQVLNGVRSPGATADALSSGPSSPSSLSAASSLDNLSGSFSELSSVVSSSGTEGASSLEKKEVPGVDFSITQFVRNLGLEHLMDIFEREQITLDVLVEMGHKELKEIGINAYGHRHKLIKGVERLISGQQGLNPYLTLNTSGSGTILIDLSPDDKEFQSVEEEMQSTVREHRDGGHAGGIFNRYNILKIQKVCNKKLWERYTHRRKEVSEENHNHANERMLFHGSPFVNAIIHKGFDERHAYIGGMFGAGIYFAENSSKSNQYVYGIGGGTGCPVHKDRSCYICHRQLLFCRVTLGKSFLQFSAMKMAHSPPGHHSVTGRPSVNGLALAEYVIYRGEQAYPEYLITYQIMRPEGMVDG
In words: Tankyrase-2 enzyme inhibition test (Tankyrase-2 Chemiluminescent Assay Kit). The test is classed as biochemical. To be noted: autoribosylation of GST-tankyrase-2 fusion protein, chemiluminescence. How it is done: Test Example 2: Tankyrase-2 Enzyme Inhibition Test
The enzyme activity of tankyrase-2 was evaluated using Tankyrase-2 Chemiluminescent Assay Kit (BPS Bioscience, Inc., Catalog No. 80566). The Tankyrase-2 Chemiluminescent Assay Kit is a kit for evaluating the enzyme activity of tankyrase-2 using autoribosylation of glutathione-S-transferase (GST)-tankyrase-2 fusion protein as an index. All the experimental materials except for PBS (PBST) buffer containing phosphate-buffered saline (PBS) and 0.05% Tween 20 are all included in the kit. The GST-tankyrase-2 enzyme diluted with 50 μL of 1× tankyrase buffer was added to the wells of a 96-well plate coated with glutathione. After the plate was left to stand overnight at 4° C., the plate was washed 3 times with the PBST buffer. 150 μL of blocking buffer was added thereto, and the plate was left to stand at room temperature for 30 minutes to block the wells. The plate was washed 3 times with the PBST buffer. Before the ribosylation reaction, an assay mixture containing a biotinylated substrate and a test compound diluted with 1× tankyrase buffer were mixed, whereby a reaction mixture was prepared. In order to start the ribosylation reaction, 50 μL of the reaction mixture was added to the wells. In a blank well, 1× tankyrase buffer was added in place of the reaction mixture containing a biotinylated substrate. The plate was left to stand at 30° C. for 1 hour. After the reaction, the plate was washed 3 times with the PBST buffer. Streptavidin-horseradish peroxidase (HRP) was diluted to 50-fold with the blocking buffer. The diluted streptavidin-HRP was added to the wells, and the plate was left to stand at room temperature for 30 minutes. The plate was washed 3 times with the PBST buffer. Immediately before use, 50 μL of the HRP chemiluminescent substrate A and 50 μL of the HRP chemiluminescent substrate B were mixed and 100 μL of the resulting mixture was added to the wells. The chemiluminescence was measured using a chemiluminescence measuring apparatus. The inhibition ratio was obtained according to the following formula 2. [Math. 2] Inhibition ratio (%)=100−{(chemiluminescence intensity when test compound was added)−(chemiluminescence intensity of blank)}/{(chemiluminescence intensity of control)−(chemiluminescence intensity of blank)}×100 Formula 2

The mark [2] stands for this setting: 1 μmol/L, DLD-1/TCF-Luc cells, luciferase activity after 18 hours.

The structures appear in SMILES notation. Like-named read-outs stand apart in the source and are kept apart here.

On to `COc1cc2ncnc(N3CCC(CN4Cc5ccccc5N(Cc5ccccc5C(N)=O)C4=O)CC3)c2cc1OC` [Compound 1, 2-[(3-{[1-(6,7-Dimethoxyquinazolin-4-yl)piperidin-4-yl]methyl}-2-oxo-3,4-dihydroquinazolin-1(2H)-yl)methyl]benzamide], for which the inhibition at 1 µM in test [1] (setting [2]) was determined as 88%. Further, the “Inhibition ratio (%) at 1 μmol/L” value on tankyrase-2 came to 91%.

With `COc1cc2ncnc(N3CCC(CN4Cc5ccccc5N(CC5CCCO5)C4=O)CC3)c2cc1OC` (centres unmarked) [Compound 2, 3-{[1-(6,7-Dimethoxyquinazolin-4-yl)piperidin-4-yl]methyl}-1-[(tetrahydrofuran-2-yl)methyl]-3,4-dihydroquinazolin-2(1H)-one], in test [1] (setting [2]), the inhibition at 1 µM is 87%. The “Inhibition ratio (%) at 1 μmol/L” value on tankyrase-2 came to 91%.

On to `COc1cc2ncnc(N3CCC(CN4Cc5cc(S(C)(=O)=O)ccc5N(Cc5ccccc5C#N)C4=O)CC3)c2cc1OC` [Compound 5, 2-[(3-{[1-(6,7-Dimethoxyquinazolin-4-yl)piperidin-4-yl]methyl}-6-(methylsulfonyl)-2-oxo-3,4-dihydroquinazolin-1(2H)-yl)methyl]benzonitrile], for which the inhibition at 1 µM in test [1] (setting [2]) turned out to be 84%. Further, on tankyrase-2, the “Inhibition ratio (%) at 1 μmol/L” value worked out at 94%.

`COc1cc2ncnc(N3CCC(CN4Cc5ccccc5N(c5ccc(F)c(C#N)c5)C4=O)CC3)c2cc1OC` [Compound 7, 5-(3-{[1-(6,7-Dimethoxyquinazolin-4-yl)piperidin-4-yl]methyl}-2-oxo-3,4-dihydroquinazolin-1(2H)-yl)-2-fluorobenzonitrile]: the inhibition at 1 µM in test [1] (setting [2]) was 76%. At tankyrase-2, the “Inhibition ratio (%) at 1 μmol/L” value turned out to be 95%.

Turning to `COc1cc2ncnc(N3CCC(CN4Cc5ccccc5N(c5cccc([N+](=O)[O-])c5)C4=O)CC3)c2cc1OC` [Compound 8, 3-{[1-(6,7-Dimethoxyquinazolin-4-yl)piperidin-4-yl]methyl}-1-(3-nitrophenyl)-3,4-dihydroquinazolin-2(1H)-one], the inhibition at 1 µM in test [1] (DLD-1, 18 h) is 73%. Further, the “Inhibition ratio (%) at 1 μmol/L” value at tankyrase-2 was found to be 90%.

With `COc1cc2ncnc(N3CCC(CN4Cc5ccccc5N(c5ccnc(C#N)c5)C4=O)CC3)c2cc1OC` [Compound 9, 4-(3-{[1-(6,7-Dimethoxyquinazolin-4-yl)piperidin-4-yl]methyl}-2-oxo-3,4-dihydroquinazolin-1(2H)-yl)picolinonitrile], the inhibition at 1 µM in test [1] (DLD-1, 18 h) was determined as 74%. At tankyrase-2, the “Inhibition ratio (%) at 1 μmol/L” value was 91%.

Regarding `COc1cc2ncnc(N3CCC(CN4Cc5ccccc5N(c5c[nH]c(=O)c(C#N)c5)C4=O)CC3)c2cc1OC` [Compound 12, 5-(3-{[1-(6,7-Dimethoxyquinazolin-4-yl)piperidin-4-yl]methyl}-2-oxo-3,4-dihydroquinazolin-1(2H)-yl)-2-oxo-1,2-dihydropyridine-3-carbonitrile], the inhibition at 1 µM in test [1] (setting [2]) was determined as 80%. For the same compound, the “Inhibition ratio (%) at 1 μmol/L” value at tankyrase-2 was 88%.

Consider `COc1cc2ncnc(N3CCC(CN4Cc5ccccc5N(c5cccc(S(N)(=O)=O)c5)C4=O)CC3)c2cc1OC` [Compound 13, 3-(3-{[1-(6,7-Dimethoxyquinazolin-4-yl)piperidin-4-yl]methyl}-2-oxo-3,4-dihydroquinazolin-1(2H)-yl)benzenesulfonamide], for which the inhibition at 1 µM in test [1] (setting [2]) came to 80%. Also, the “Inhibition ratio (%) at 1 μmol/L” value on tankyrase-2 worked out at 89%.

Take `COc1cc2ncnc(N3CCC(CN4Cc5ccccc5N(c5ccc(C(=O)O)c(C#N)c5)C4=O)CC3)c2cc1OC` [Compound 15, 2-Cyano-4-(3-{[1-(6,7-dimethoxyquinazolin-4-yl)piperidin-4-yl]methyl}-2-oxo-3,4-dihydroquinazolin-1(2H)-yl)benzoic acid]: the inhibition at 1 µM in test [1] (setting [2]) turned out to be 84%. On tankyrase-2, the “Inhibition ratio (%) at 1 μmol/L” value turned out to be 92%.

For the compound `COc1cc2ncnc(N3CCC(CN4Cc5ccccc5N(C5CCOCC5)C4=O)CC3)c2cc1OC` [Compound 16, 3-{[1-(6,7-Dimethoxyquinazolin-4-yl)piperidin-4-yl]methyl}-1-(tetrahydro-2H-pyran-4-yl)-3,4-dihydroquinazolin-2(1H)-one], the inhibition at 1 µM in test [1] (setting [2]) was found to be 63%. Further, on tankyrase-2, the “Inhibition ratio (%) at 1 μmol/L” value is listed as 71%.

Take `COc1cc2ncnc(N3CCC(O)(CN4Cc5ccccc5N(c5ccnc(C#N)c5)C4=O)CC3)c2cc1OC` [Compound 18, 4-(3-{[1-(6,7-Dimethoxyquinazolin-4-yl)-4-hydroxypiperidin-4-yl]methyl}-2-oxo-3,4-dihydroquinazolin-1(2H)-yl)picolinonitrile]: the inhibition at 1 µM in test [1] (setting [2]) was determined as 80%. Also, the “Inhibition ratio (%) at 1 μmol/L” value on tankyrase-2 was 79%.

For `COc1cc2ncnc(N3CCC(CN4Cc5ccncc5N(c5ccnc(C#N)c5)C4=O)CC3)c2cc1OC` [Compound 21, 4-(3-{[1-(6,7-Dimethoxyquinazolin-4-yl)piperidin-4-yl]methyl}-2-oxo-3,4-dihydropyrido[3,4-d]pyrimidin-1(2H)-yl)picolinonitrile], the inhibition at 1 µM in test [1] (setting [2]) amounted to 76%. The “Inhibition ratio (%) at 1 μmol/L” value at tankyrase-2 came to 93%.

`COc1cc2ncnc(N3CCC(CN4Cc5cccnc5N(c5ccnc(C#N)c5)C4=O)CC3)c2cc1OC` [Compound 22, 4-(3-{[1-(6,7-Dimethoxyquinazolin-4-yl)piperidin-4-yl]methyl}-2-oxo-3,4-dihydropyrido[2,3-d]pyrimidin-1(2H)-yl)picolinonitrile]: in test [1] (setting [2]), the inhibition at 1 µM was found to be 75%. Besides, the “Inhibition ratio (%) at 1 μmol/L” value at tankyrase-2 turned out to be 98%.
